Test results from ChEMBL document CHEMBL3507680, “University of Dundee, Gates Library screen for HepG2 cell viability”.

Assay: Human HepG2 cell viability assay in 384 well format
Format: toxicity, cell-based
Set-up: dose 125 nL, time 70.5 hour; cytotoxicity at 70.5 h: concentration not given beside the values
Conditions: HepG2 cells, read-out: Inhibition

Row | SMILES | cytotoxicity at 70.5 h [%]
1 | CCNC(=O)CN1CCC(c2cc(OC)cc(OC)c2)C1 (stereo not given) | -10.7
2 | CC(C)N(Cc1cccc(Cl)c1)Cc1nnsc1Cl | -2.95
3 | CCN(CC1CCOC1)C(=O)c1ccc(COc2ccccc2C#N)o1 (stereo not given) | -3.17
4 | COCCNS(=O)(=O)c1ccc(Cl)c(C(=O)N(C)Cc2ccsc2)c1 | -5.32
5 | CS(=O)(=O)NCC1CCCN(c2ccc(C#N)cn2)C1 (stereo not given) | -8.07
6 | CS(=O)(=O)NC1CCCN(c2ccc(C#N)cn2)C1 (stereo not given) | -6.77
7 | O=C(NCCNc1ncccn1)N1CCc2ccccc2C1 | 8.69
8 | CCN(Cc1ccc2c(c1)OCO2)C(=O)c1ccc(=O)n(C)c1 | -0.838
9 | CCOc1cccc(CNc2cncc(-n3cccn3)n2)c1 | -8.59
10 | Fc1cccc(CNc2cncc(-n3cccn3)n2)c1 | -6.71
11 | N#Cc1ccccc1N1CCCN(CC(=O)Nc2ccc(Cl)cn2)CC1 | -2.38
12 | Cn1c(NC(=O)CCS(=O)(=O)C2CCCC2)nc2cc(Cl)ccc21 | -9.03
13 | O=C(CC1CCCC1)NCCn1nc2ccccn2c1=O | -2.13
14 | CC1CCN(C(=O)C2CCCN(C(=O)Nc3ccccn3)C2)CC1 (stereo not given) | -9.24
15 | Cc1nn(C)c2ncc(S(=O)(=O)N3CCCN4CCCC4C3)cc12 (stereo not given) | -2.09
16 | Cc1nn(C)c2ncc(S(=O)(=O)N3CCCC(C(N)=O)C3)cc12 (stereo not given) | -6.46
17 | CN(C)c1ncccc1CNC(=O)N1CCN(C)c2ccccc2C1 | -8.8
18 | COc1cccc(N2CCC(CNC(=O)CN3CSCC3=O)C2)c1 (stereo not given) | -9.99
19 | CCCc1cc(NCCn2cccn2)n2ncnc2n1 | -6.07
20 | Cc1ncc(CN(C)C(=O)c2ccc(N3CCOCC3)c(F)c2)s1 | -6.71
21 | Cc1nn(C)c2ncc(S(=O)(=O)N3CCN4CCCC4C3)cc12 (stereo not given) | -7.68
22 | Cn1ccnc1COc1ccc(COC(=O)C2CCCO2)cc1 (stereo not given) | 3.75

Row | SMILES | cytotoxicity at 70.5 h [%]
23 | Cn1c(NC(=O)CNC(=O)C2CC2)nc2cc(Cl)ccc21 | -7.94
24 | Cc1nn(C)c2ncc(S(=O)(=O)N3CCCC(C)CC3)cc12 (stereo not given) | -8.46
25 | COc1cc(NC(=O)NC2CCCC2)ccc1N1CCOC1=O | -8.76
26 | OCc1cc2ccccc2nc1N1CCCC1 | -15.5
27 | COc1cc(NC(=O)NC2CCOCC2)ccc1N1CCOC1=O | 6.14
28 | CCC(=O)CNC(=O)CCn1nc2ccccn2c1=O | -1.88
29 | Cc1cc2c(cc1C)OC(C(=O)NCCNC(=O)C1CCCC1)C2 (stereo not given) | -6.43
30 | Cc1cc(N2CCN(c3nc4ccccc4cc3CO)CC2)nc(C)n1 | -9.44
31 | COc1c(CNCc2ccc(N3CCOCC3)nc2)c(C)nn1C | -5.76
32 | Cc1cccc(N(CCC(N)=O)C(=O)c2cc(-n3cccn3)ccn2)c1 | -12
33 | O=C(CCc1cccnc1)Nc1ccc(OCC2CCOCC2)cc1 | -10.4
34 | CNS(=O)(=O)CC1CCCN1C(=O)c1ccc(C)c(C)c1 (stereo not given) | 25.9
35 | CC(C)(C)c1csc(C2CCCCN2C(=O)CCn2cncn2)n1 (stereo not given) | -5.87
36 | Cn1cc(Br)cc(NC(=O)CC2CCC2)c1=O | -6.41
37 | Cc1cccc(N(CCC(N)=O)C(=O)c2ccnc(C)n2)c1 | -13.8
38 | COCCn1cc(NC(=O)NC(C)CCc2ccccc2)ccc1=O (stereo not given) | -7.43
39 | O=C(NCc1cccnc1)NCC(O)c1ccccc1C(F)(F)F (stereo not given) | -9.13
40 | Cc1cc(N2CCC(N(C)Cc3cc(=O)c(O)co3)CC2)nc(C)n1 | -7
41 | CN(Cc1cc(=O)c(O)co1)C1CCCN(c2ccccc2)C1 (stereo not given) | 24.6
42 | Cc1ccc(CN(C(=O)NCCNC(=O)c2cccnc2)C(C)C)o1 | 14.6
43 | Cc1csc(C2CCCCN2C(=O)CCCn2cccn2)n1 (stereo not given) | -11.4
44 | COC(=O)Cc1cccc(NC(=O)Cc2ccon2)c1 | 23.7

Row | SMILES | cytotoxicity at 70.5 h [%]
45 | Cc1csc(C2CCCCN2C(=O)CCCn2cncn2)n1 (stereo not given) | -9.21
46 | COc1cc(F)c(NC(=O)N(C)CCNC(=O)N(C)C)cc1F | -0.221
47 | Cc1nn(C)c(C)c1NC(=O)Nc1cccnc1N1CCCC1 | -7.71
48 | Cc1cc(S(=O)(=O)N(C)CC(N)=O)ccc1Br | -2.54
49 | CCC(C)NC(=O)c1cc(S(N)(=O)=O)c(Br)s1 (stereo not given) | -6.88
50 | CN(Cc1ccc2c(c1)OCCO2)Cn1nc(C(C)(C)C)ccc1=O | 12.7
51 | CN(C)S(=O)(=O)c1ccc2c(c1)N(Cc1ccccn1)CCC2 | -1.38
52 | CN(C)S(=O)(=O)c1ccc2c(c1)N(Cc1nccn1C)CCC2 | -6.79
53 | CN1CCN(c2ccnc3c(F)cc(Br)cc23)CC1 | 1.8
54 | O=C(CCc1cncc(F)c1)NS(=O)(=O)c1ccc(F)cc1F | 8.87
55 | Cc1cc(F)cc(S(=O)(=O)NC(=O)CCc2cncc(F)c2)c1 | -4.33
56 | COc1cc(F)c(NC(=O)N(C)Cc2cc(C)on2)cc1F | -5.99
57 | O=C(CN1CCC(OCC2CCCO2)CC1)NCC(F)(F)F (stereo not given) | -7.24
58 | CCNC(=O)CN1CCC(OCC2CCCO2)CC1 (stereo not given) | -6.63
59 | CCc1nnc2n1CC(CNCc1nnc(C(C)(C)C)o1)CC2 (stereo not given) | -6.78
60 | FC(F)(F)Cn1cc(NCc2cscn2)cn1 | -5.23
61 | CC(C)(C)n1cc(NCc2cscn2)cn1 | -6.29
62 | CC(C)c1nnc(NC(=O)N2CCN(C)CC2c2ccccc2)s1 (stereo not given) | 9.58
63 | CC(C)c1nnc(NC(=O)N2CCCC2c2ccncc2)s1 (stereo not given) | 20
64 | CN(C)C(CNC(=O)c1nc(N2CCOCC2)ncc1Cl)c1cccs1 (stereo not given) | -8.97
65 | CNC(=O)NC(=O)C(C)N1CCCc2cc(OC)ccc2C1 (stereo not given) | -13.9
66 | COc1cc(C(C)=O)ccc1SCC(=O)Nc1ccccn1 | 21.7

Row | SMILES | cytotoxicity at 70.5 h [%]
67 | COc1cc2c(cc1OC)S(=O)(=O)N(Cc1cc(C)on1)C2=O | -4.33
68 | COc1cc2c(cc1OC)S(=O)(=O)N(Cc1cnn(C)c1)C2=O | -22.9
69 | COc1ccc2c(c1)CCCN(C(C)C(=O)NC(C)C)C2 (stereo not given) | -15.7
70 | CCc1ocnc1C(=O)Nc1ccc2ccn(CCN(C)C)c2c1 | -13.2
71 | COc1cc(C(C)=O)ccc1SCC(=O)Nc1ccc(C)cn1 | -7.73
72 | O=C(c1coc2ccccc12)N1CCS(=O)(=O)CC1 | -5.47
73 | NC(=O)c1ccc(OCCC(=O)NC2CCc3c(F)cccc32)cc1 (stereo not given) | 21.4
74 | N#Cc1cccc(Cl)c1NCCc1n[nH]c(=O)[nH]1 | -3.93
75 | N#Cc1cccc(Cl)c1NCCCc1nc(=O)[nH][nH]1 | -9.76
76 | COCCN(Cc1cccc(C#N)c1)Cc1nnsc1Cl | 23
77 | CCCN(CCC)Cc1nnsc1Cl | -13.7
78 | O=C(NCCc1cccs1)N1CCC[C@H]1CO | -6.62
79 | CCN(Cc1nnsc1Cl)C(C)c1ccc(C#N)cc1 (stereo not given) | -3.23
80 | COc1ccc2c(c1)CCCN(C(C)C(=O)N1CCCC1)C2 (stereo not given) | -3.36
81 | CCC(C)(C)NC(=O)Cn1cc(C(N)=O)c(-c2ccccc2)n1 | -7.28
82 | Cc1ncc2c(n1)CN(CCOc1ccc3c(c1)CCC(=O)N3)CC2 | -6.43
83 | COc1ccc(C(=O)CCc2nc(C3CC3)no2)cc1 | -23.1
84 | Brc1cc(CNCc2nnc3n2CCC3)cs1 | -8.54
85 | O=C1NCCCCC1NCc1csc(-c2ccccn2)n1 (stereo not given) | -12.2
